# pKi: −log10 of the molar value.
# Experiments:
# [1] = biological target: T1, 5-hydroxytryptamine receptor 1D (Homo sapiens, UniProt P28221); test: Compound was evaluated for its agonistic activity on 5-hydroxytryptamine 1D receptor; type: functional
# [2] = biological target: T2, Serotonin 3 (5-HT3) receptor (Rattus norvegicus, UniProt P35563+Q9JJ16); test: Binding affinity was measured on 5-hydroxytryptamine 3 receptor in NG-108 cells labeled with [3H]GR-65630; type: cell-based
# T2 sequence (P35563 whole entry): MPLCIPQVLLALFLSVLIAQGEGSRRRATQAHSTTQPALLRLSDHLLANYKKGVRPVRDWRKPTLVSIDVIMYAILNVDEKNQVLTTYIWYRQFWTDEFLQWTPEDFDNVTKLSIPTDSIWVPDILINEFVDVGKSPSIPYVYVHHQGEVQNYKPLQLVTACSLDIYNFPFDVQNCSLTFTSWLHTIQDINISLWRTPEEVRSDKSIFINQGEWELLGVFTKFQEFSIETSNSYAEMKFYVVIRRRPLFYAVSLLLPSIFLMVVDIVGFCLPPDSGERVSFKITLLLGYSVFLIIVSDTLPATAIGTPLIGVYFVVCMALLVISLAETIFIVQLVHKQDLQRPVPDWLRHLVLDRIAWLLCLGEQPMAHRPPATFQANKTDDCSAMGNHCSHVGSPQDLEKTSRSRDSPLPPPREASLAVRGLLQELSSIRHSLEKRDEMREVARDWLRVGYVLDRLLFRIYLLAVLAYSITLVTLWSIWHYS
# T2 sequence (Q9JJ16 whole entry): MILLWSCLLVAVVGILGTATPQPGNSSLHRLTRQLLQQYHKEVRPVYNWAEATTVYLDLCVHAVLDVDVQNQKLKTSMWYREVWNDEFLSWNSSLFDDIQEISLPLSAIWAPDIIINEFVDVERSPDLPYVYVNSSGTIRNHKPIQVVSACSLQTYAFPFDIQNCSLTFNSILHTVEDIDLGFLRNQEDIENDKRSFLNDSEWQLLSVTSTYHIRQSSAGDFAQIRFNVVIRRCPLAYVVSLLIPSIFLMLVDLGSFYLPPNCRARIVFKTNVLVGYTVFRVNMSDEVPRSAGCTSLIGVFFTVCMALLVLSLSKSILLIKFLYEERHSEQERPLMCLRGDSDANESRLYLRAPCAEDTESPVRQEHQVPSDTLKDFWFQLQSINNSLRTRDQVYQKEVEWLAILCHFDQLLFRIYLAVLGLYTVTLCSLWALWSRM
# [3] = biological target: T3, 5-hydroxytryptamine receptor 2C (Rattus norvegicus, UniProt P08909); test: Binding affinity was measured on 5-hydroxytryptamine 2C receptor in J1 cells transfected with rat 5-HT2C gene labeled with [3H]mesulergine; type: cell-based
# T3 sequence (P08909 whole entry): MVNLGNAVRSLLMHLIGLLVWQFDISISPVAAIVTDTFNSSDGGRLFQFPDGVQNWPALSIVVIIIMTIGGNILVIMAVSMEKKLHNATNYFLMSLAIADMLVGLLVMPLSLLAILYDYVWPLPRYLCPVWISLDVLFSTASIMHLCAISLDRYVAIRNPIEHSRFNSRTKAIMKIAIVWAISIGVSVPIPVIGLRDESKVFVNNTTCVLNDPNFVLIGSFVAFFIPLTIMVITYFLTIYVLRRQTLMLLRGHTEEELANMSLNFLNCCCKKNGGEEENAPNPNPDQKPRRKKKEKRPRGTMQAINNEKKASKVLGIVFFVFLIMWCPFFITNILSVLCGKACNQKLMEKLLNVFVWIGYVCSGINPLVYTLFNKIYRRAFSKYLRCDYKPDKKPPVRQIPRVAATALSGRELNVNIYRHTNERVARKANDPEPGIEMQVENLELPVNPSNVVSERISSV
# [4] = biological target: 5-hydroxytryptamine receptor 1B (Rattus norvegicus, UniProt P28564); test: Binding affinity was measured on 5-hydroxytryptamine 1B receptor in rat striatum labeled with [3H]5-HT; type: tissue-based
# 5-hydroxytryptamine receptor 1B, sequence (P28564 whole entry): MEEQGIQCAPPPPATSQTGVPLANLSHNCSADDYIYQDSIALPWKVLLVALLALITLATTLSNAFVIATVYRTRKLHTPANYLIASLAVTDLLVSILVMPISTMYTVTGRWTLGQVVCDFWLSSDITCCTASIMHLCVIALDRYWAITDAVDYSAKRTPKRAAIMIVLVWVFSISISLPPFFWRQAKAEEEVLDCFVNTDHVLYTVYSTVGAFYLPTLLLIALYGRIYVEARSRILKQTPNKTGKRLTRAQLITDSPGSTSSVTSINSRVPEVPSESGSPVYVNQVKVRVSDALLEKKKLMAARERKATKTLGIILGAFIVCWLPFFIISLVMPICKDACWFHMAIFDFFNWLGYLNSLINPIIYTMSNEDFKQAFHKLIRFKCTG
# [5] = biological target: 5-hydroxytryptamine receptor 2A (Homo sapiens, UniProt P28223); test: biochemical; type: cell-based, GF6
# 5-hydroxytryptamine receptor 2A, sequence (P28223 whole entry): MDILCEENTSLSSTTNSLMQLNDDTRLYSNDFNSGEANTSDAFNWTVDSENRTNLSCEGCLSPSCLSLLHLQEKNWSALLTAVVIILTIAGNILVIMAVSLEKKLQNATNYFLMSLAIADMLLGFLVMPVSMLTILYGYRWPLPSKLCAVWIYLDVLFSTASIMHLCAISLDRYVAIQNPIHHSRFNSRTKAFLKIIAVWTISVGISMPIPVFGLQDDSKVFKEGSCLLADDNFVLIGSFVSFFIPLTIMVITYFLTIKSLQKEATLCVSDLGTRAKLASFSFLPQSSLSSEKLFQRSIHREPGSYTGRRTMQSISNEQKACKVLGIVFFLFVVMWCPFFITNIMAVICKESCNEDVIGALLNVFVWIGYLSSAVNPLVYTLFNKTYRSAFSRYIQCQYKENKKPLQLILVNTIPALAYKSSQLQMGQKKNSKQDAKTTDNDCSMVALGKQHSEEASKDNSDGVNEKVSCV
# [6] = biological target: T1, 5-hydroxytryptamine receptor 1D; test: Binding affinity was measured on 5-hydroxytryptamine 1D receptor alpha in COS cells transfected with human 5-HT1D alpha gene labeled with [3H]5-HT; type: cell-based
# T1 sequence (P28221 whole entry): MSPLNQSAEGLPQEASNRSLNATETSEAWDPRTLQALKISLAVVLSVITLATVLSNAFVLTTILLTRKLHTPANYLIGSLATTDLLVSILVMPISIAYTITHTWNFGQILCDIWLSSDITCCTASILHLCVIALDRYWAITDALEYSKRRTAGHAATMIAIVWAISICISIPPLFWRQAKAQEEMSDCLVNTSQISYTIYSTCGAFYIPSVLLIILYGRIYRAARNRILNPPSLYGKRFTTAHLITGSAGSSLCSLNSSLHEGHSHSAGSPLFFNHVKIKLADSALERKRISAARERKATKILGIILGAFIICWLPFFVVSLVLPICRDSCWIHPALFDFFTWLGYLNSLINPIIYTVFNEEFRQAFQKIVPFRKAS
SMILES,ED50 [1],pKi [2],pKi [3],pKi [4],pKi [5],pKi [6]
NCCc1c[nH]c2ccc(O)cc12,1.2 nM,,,,,
CNS(=O)(=O)Cc1ccc2[nH]cc(CCN(C)C)c2c1,317 nM,< 6.00,< 6.00,,,
CCCCCCCCCOc1ccc2[nH]cc(CCN)c2c1,68 nM,< 6.00,6.57,7.89,6.59,7.80

# Source: ChEMBL document CHEMBL1127443 (J Med Chem, 1994)
